Measured values reported in patent US9587005B2 (priority 2010, dated 2017).
Where two headings read alike, the source gives them in different places. *1 amine or outer side, *2 acyl side, *3 side chain or, on linkers, in order; H or OH if unused. Where a SMILES comes first, the peptide text is derived from it. Bridges are numbered along the chain shown (N, C = ends). Where no end group is shown, it is not given here. Side-chain parts run from the residue outwards. [ ]: non-standard residue; d: D form. The star is where a group is joined. PEG8 = NCCOCCOCCOCCOCCOCCOCCOCCOCCC(=O)O; Phe(4-NH2) = Nc1ccc(C[C@H](N)C(=O)O)cc1; γGlu = O=C(O)[C@H](CCC(=O)[*:2])N[*:1]; X6 = CCCCCCCCCCCCCCCCC(CC(=O)*)C(=O)O; Palmitoyl = CCCCCCCCCCCCCCCC(=O)*; Aib = CC(C)(N)C(=O)O

Assays:
Assay type in all cases: cell-based
glucagon receptor = molecular target: T1, glucagon receptor (Homo sapiens, UniProt P47871); experiment: cAMP induction, firefly luciferase reporter assay in HEK293 cells co-transfected with glucagon receptor; settings: for GR relative activity: Table 3, relative to the activity of the native hormone
T1 construct: expressed in transfected cells; host or cells: HEK293
Description: (§1) This example describes an exemplary method of testing the biological activity of the peptides of the present disclosures, which method involves assaying cAMP synthesis.

GLP-1 receptor = molecular target: T2, GLP-1 receptor (Homo sapiens, UniProt P43220); experiment: cAMP induction, firefly luciferase reporter assay in HEK293 cells co-transfected with GLP-1 receptor; settings: for GLP-1R relative activity: Table 3, relative to the activity of the native hormone
T2 construct: expressed in transfected cells; host or cells: HEK293
Description: as §1

GIP receptor = molecular target: T3, GIP receptor (Homo sapiens, UniProt P48546); experiment: cAMP induction, firefly luciferase reporter assay in HEK293 cells co-transfected with GIP receptor; settings: for GIPR relative activity: Table 3, relative to the activity of the native hormone
T3 sequence (P48546 22-466): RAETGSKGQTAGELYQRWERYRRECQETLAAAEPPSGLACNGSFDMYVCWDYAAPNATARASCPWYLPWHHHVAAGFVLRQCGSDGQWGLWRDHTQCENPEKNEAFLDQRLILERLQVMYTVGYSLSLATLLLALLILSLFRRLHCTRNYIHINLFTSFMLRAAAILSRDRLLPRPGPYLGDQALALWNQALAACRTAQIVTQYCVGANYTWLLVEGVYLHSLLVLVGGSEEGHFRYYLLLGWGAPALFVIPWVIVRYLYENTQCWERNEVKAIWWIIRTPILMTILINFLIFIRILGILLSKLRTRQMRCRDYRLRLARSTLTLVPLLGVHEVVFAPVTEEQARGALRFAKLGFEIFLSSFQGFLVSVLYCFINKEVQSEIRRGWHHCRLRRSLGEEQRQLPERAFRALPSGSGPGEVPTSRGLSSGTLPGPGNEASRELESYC

[1] = EC50 (nM) at glucagon receptor, Table 16, Example 24

T2 sequence (P43220 24-463): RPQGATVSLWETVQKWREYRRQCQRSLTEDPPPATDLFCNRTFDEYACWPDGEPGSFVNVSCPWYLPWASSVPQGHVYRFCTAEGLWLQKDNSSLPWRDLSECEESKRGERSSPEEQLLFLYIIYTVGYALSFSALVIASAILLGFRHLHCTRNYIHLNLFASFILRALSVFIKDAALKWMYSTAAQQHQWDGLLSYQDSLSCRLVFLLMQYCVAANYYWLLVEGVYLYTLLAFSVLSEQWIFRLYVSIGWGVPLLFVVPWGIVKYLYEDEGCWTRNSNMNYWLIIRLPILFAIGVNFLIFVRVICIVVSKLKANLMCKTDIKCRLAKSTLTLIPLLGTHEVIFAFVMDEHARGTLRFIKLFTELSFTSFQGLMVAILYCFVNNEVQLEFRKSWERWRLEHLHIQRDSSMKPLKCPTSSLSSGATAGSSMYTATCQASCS
T1 sequence (P47871 26-477): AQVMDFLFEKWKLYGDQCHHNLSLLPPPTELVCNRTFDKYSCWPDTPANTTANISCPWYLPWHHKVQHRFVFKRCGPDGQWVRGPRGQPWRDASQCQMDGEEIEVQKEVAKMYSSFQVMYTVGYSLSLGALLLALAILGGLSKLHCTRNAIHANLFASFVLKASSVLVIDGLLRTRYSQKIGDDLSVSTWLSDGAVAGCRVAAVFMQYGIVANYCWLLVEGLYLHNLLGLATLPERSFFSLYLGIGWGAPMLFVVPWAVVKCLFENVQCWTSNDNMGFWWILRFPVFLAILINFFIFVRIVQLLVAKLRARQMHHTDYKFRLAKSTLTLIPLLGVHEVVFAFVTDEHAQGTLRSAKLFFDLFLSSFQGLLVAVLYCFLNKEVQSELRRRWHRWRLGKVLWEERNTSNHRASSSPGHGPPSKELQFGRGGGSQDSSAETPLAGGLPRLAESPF

CCCCCCCCCCCCCCCC(=O)N[C@@H](CCC(=O)N[C@@H](CCC(=O)NCCCC[C@H](NC(=O)[C@H](CC(=O)O)NC(=O)[C@H](CO)NC(=O)[C@@H](NC(=O)[C@H](Cc1ccccc1)NC(=O)[C@@H](NC(=O)CNC(=O)[C@H](CCC(N)=O)NC(=O)C(C)(C)NC(=O)[C@@H](N)Cc1ccc(O)cc1)[C@@H](C)O)[C@@H](C)O)C(=O)N[C@@H](CO)C(=O)N[C@H](C(=O)N[C@@H](Cc1ccc(O)cc1)C(=O)N[C@@H](CC(C)C)C(=O)N[C@@H](CC(=O)O)C(=O)N[C@@H](CCCCN)C(=O)N[C@@H](CCC(N)=O)C(=O)N[C@@H](C)C(=O)N[C@@H](C)C(=O)NC(C)(C)C(=O)N[C@@H](CCC(=O)O)C(=O)N[C@@H](Cc1ccccc1)C(=O)N[C@H](C(=O)N[C@@H](CC(N)=O)C(=O)N[C@@H](Cc1c[nH]c2ccccc12)C(=O)N[C@@H](CC(C)C)C(=O)N[C@@H](CC(C)C)C(=O)N[C@@H](CC(=O)O)C(=O)NCC(=O)NCC(=O)N1CCC[C@H]1C(=O)N[C@@H](CO)C(=O)N[C@@H](CO)C(=O)NCC(=O)N[C@@H](C)C(=O)N1CCC[C@H]1C(=O)N1CCC[C@H]1C(=O)N1CCC[C@H]1C(=O)N[C@@H](CO)C(N)=O)C(C)C)[C@@H](C)CC)C(=O)O)C(=O)O [compound 91] (H-Y[Aib]QGTFTSDK([γGlu-γGlu-Palmitoyl])SIYLDKQAA[Aib]EFVNWLLDGGPSSGAPPPS-NH2; N-terminus assumed)
EC50 (glucagon receptor; EC50 (nM) at Glucagon Receptor, Table 7, Example 13): 0.073 nM | EC50 (GLP-1 receptor; EC50 (nM) at GLP-1 Receptor, Table 7, Example 13): 0.008 nM | EC50 (GIP receptor; EC50 (nM) at GIP Receptor, Table 7, Example 13): 0.005 nM

Example 8 peptide: Tyr1, AIB2, Glu16/Lys20 lactam, Leu-Ala-Gly 27-29, GPSSGAPPPS 30-39, or a peptide lacking a lactam [mt-225] (Y[Aib]QGTFTSDYSIYLDEQAAKEFVNWLLAGGPSSGAPPPSK([Ala-Cys(PEG 40 kDa)-Ac]); lactam 16-20; not fully specified (C-terminus))
GR relative activity (glucagon receptor): 1.99% | GLP-1R relative activity (GLP-1 receptor): 29.59% | GIPR relative activity (GIP receptor): 0.90%

H[Aib]QGTFTSDYSKYLDERAAQDFVQWLLDGGPSSGAPPPSK([PEG8-γGlu-Palmitoyl])G-NH2 [SEQ ID NO: 159]
EC50 (glucagon receptor; Glucagon Receptor EC50, Table 11, Example 18): 0.006 nM | EC50 (GLP-1 receptor; GLP-1 Receptor EC50, Table 11, Example 18): 0.005 nM | EC50 (GIP receptor; GIP Receptor EC50, Table 11, Example 18): 0.002 nM

CCCCCCCCCCCCCCCC(=O)N[C@@H](CCC(=O)N[C@@H](CCC(=O)NCCCC[C@H](NC(=O)[C@H](CC(=O)O)NC(=O)[C@H](CO)NC(=O)[C@@H](NC(=O)[C@H](Cc1ccccc1)NC(=O)[C@@H](NC(=O)CNC(=O)[C@H](CCC(N)=O)NC(=O)C(C)(C)NC(=O)[C@@H](N)Cc1ccc(O)cc1)[C@@H](C)O)[C@@H](C)O)C(=O)N[C@@H](CO)C(=O)N[C@H](C(=O)N[C@@H](Cc1ccc(O)cc1)C(=O)N[C@@H](CC(C)C)C(=O)N[C@@H](CC(=O)O)C(=O)N[C@@H](CCCCN)C(=O)N[C@@H](CCC(N)=O)C(=O)N[C@@H](C)C(=O)N[C@@H](C)C(=O)NC(C)(C)C(=O)N[C@@H](CCC(=O)O)C(=O)N[C@@H](Cc1ccccc1)C(=O)N[C@H](C(=O)N[C@@H](CC(N)=O)C(=O)N[C@@H](Cc1c[nH]c2ccccc12)C(=O)N[C@@H](CC(C)C)C(=O)N[C@@H](CC(C)C)C(=O)N[C@@H](C)C(=O)NCC(=O)NCC(=O)N1CCC[C@H]1C(=O)N[C@@H](CO)C(=O)N[C@@H](CO)C(=O)NCC(=O)N[C@@H](C)C(=O)N1CCC[C@H]1C(=O)N1CCC[C@H]1C(=O)N1CCC[C@H]1C(=O)N[C@@H](CO)C(N)=O)C(C)C)[C@@H](C)CC)C(=O)O)C(=O)O [compound 81] (H-Y[Aib]QGTFTSDK([γGlu-γGlu-Palmitoyl])SIYLDKQAA[Aib]EFVNWLLAGGPSSGAPPPS-NH2; N-terminus assumed)
EC50 (glucagon receptor; EC50 (nM) at Glucagon Receptor, Table 6, Example 12): 0.073 nM | EC50 (GLP-1 receptor; EC50 (nM) at GLP-1 Receptor, Table 6, Example 12): 0.008 nM | EC50 (GIP receptor; EC50 (nM) at GIP Receptor, Table 6, Example 12): 0.005 nM

H[Aib]QGTFTSDYSKYLDERAAQDFVQWLLDGGPSSGAPPPS[Phe(4-NH2)](X6)G-NH2 [SEQ ID NO: 146]
EC50 (glucagon receptor): 0.007 nM | EC50 (GLP-1 receptor): 0.007 nM | EC50 (GIP receptor): 0.052 nM

CCCCCCCCCCCCCCCC(=O)N[C@@H](CCC(=O)NCCCC[C@H](NC(=O)[C@H](CC(=O)O)NC(=O)[C@H](CO)NC(=O)[C@@H](NC(=O)[C@H](Cc1ccccc1)NC(=O)[C@@H](NC(=O)CNC(=O)[C@H](CCC(N)=O)NC(=O)C(C)(C)NC(=O)[C@@H](N)Cc1c[nH]cn1)[C@@H](C)O)[C@@H](C)O)C(=O)N[C@@H](CO)C(=O)N[C@@H](CCCCN)C(=O)N[C@@H](Cc1ccc(O)cc1)C(=O)N[C@@H](CC(C)C)C(=O)N[C@@H](CC(=O)O)C(=O)N[C@@H](CCC(=O)O)C(=O)N[C@@H](CCCNC(=N)N)C(=O)N[C@@H](C)C(=O)N[C@@H](C)C(=O)N[C@@H](CCC(N)=O)C(=O)N[C@@H](CC(=O)O)C(=O)N[C@@H](Cc1ccccc1)C(=O)N[C@H](C(=O)N[C@@H](CCC(N)=O)C(=O)N[C@@H](Cc1c[nH]c2ccccc12)C(=O)N[C@@H](CC(C)C)C(=O)N[C@@H](CC(C)C)C(=O)N[C@@H](CC(=O)O)C(=O)NCC(=O)NCC(=O)N1CCC[C@H]1C(=O)N[C@@H](CO)C(=O)N[C@@H](CO)C(=O)NCC(=O)N[C@@H](C)C(=O)N1CCC[C@H]1C(=O)N1CCC[C@H]1C(=O)N1CCC[C@H]1C(=O)N[C@@H](CO)C(N)=O)C(C)C)C(=O)O [SEQ ID NO: 28]
EC50 (glucagon receptor; EC50 (nM) at glucagon receptor, Table 15, Example 23): 0.002 nM | EC50 (glucagon receptor; [1]): 0.003 nM | EC50 (GLP-1 receptor; EC50 (nM) at GLP-1 receptor, Table 15, Example 23): 0.002 nM | EC50 (GLP-1 receptor; GLP-1 Receptor EC50, Table 10, Example 16): 0.007 nM | EC50 (GLP-1 receptor; Table 12, Example 19, read-out: EC50 (cAMP, nmole) GLPR): 0.003 nM | EC50 (GIP receptor; EC50 (nM) at GIP receptor, Table 15, Example 23): 0.002 nM | EC50 (GIP receptor; GIP (0.01), Table 8, Example 14, activity at the GIP receptor): 0.003 nM | EC50 (GIP receptor; Table 10, Example 16, read-out: GIP-1 Receptor EC50): 0.003 nM | EC50 (GIP receptor; Table 12, Example 19, read-out: EC50 (cAMP, nmole) GIPR): 0.007 nM

Example 8 peptide: Tyr1, AIB2, Glu16/Lys20 lactam, Leu-Ala-Gly 27-29, GPSSGAPPPS 30-39, or a peptide lacking a lactam [mt-220]
GR relative activity (glucagon receptor): 1.18% | EC50 (GLP-1 receptor; Table 3, Example 8, read-out: GLP-1R EC50): 0.18 nM | GLP-1R relative activity (GLP-1 receptor): 13.89% | EC50 (GIP receptor; Table 3, Example 8, read-out: GIPR EC50): 10.3 nM | GIPR relative activity (GIP receptor): 0.19%

H[Aib]QGTFTSDYSKYLDERAAQDFVQWLLDAGPSSGAPPPSK([γGlu-γGlu-Palmitoyl])G-NH2 [SEQ ID NO: 204]
EC50 (glucagon receptor; [1]): 0.003 nM | EC50 (GLP-1 receptor; EC50 (nM) at GLP-1 receptor, Table 16, Example 24): 0.001 nM

CCCCCCCCCCCCCCCC(=O)N[C@@H](CCC(=O)NCCCC[C@H](NC(=O)[C@H](CC(=O)O)NC(=O)[C@H](CO)NC(=O)[C@@H](NC(=O)[C@H](Cc1ccccc1)NC(=O)[C@@H](NC(=O)CNC(=O)[C@H](CCC(N)=O)NC(=O)[C@@H](CO)NC(=O)C(C)(C)c1c[nH]cn1)[C@@H](C)O)[C@@H](C)O)C(=O)N[C@@H](CO)C(=O)N[C@@H](CCCCN)C(=O)N[C@@H](Cc1ccc(O)cc1)C(=O)N[C@@H](CC(C)C)C(=O)N[C@@H](CC(=O)O)C(=O)N[C@@H](CCC(=O)O)C(=O)N[C@@H](CCCNC(=N)N)C(=O)N[C@@H](C)C(=O)N[C@@H](C)C(=O)N[C@@H](CCC(N)=O)C(=O)N[C@@H](CC(=O)O)C(=O)N[C@@H](Cc1ccccc1)C(=O)N[C@H](C(=O)N[C@@H](CCC(N)=O)C(=O)N[C@@H](Cc1c[nH]c2ccccc12)C(=O)N[C@@H](CC(C)C)C(=O)N[C@@H](CC(C)C)C(=O)N[C@@H](CC(=O)O)C(=O)N[C@H](C(N)=O)[C@@H](C)O)C(C)C)C(=O)O [compound 32]
EC50 (glucagon receptor; Table 4, Example 9, composite of multiple different activity assays): 0.004 nM | EC50 (GLP-1 receptor): 0.003 nM

CCCCCCCCCCCCCCCC(=O)N[C@@H](CCC(=O)NCCCC[C@H](NC(=O)[C@H](CC(=O)O)NC(=O)[C@H](CO)NC(=O)[C@@H](NC(=O)[C@H](Cc1ccccc1)NC(=O)[C@@H](NC(=O)CNC(=O)[C@H](CCC(N)=O)NC(=O)C(C)(C)NC(=O)[C@@H](N)Cc1cnc[nH]1)[C@@H](C)O)[C@@H](C)O)C(=O)N[C@@H](CO)C(=O)N[C@@H](CCCCN)C(=O)N[C@@H](Cc1ccc(O)cc1)C(=O)N[C@@H](CC(C)C)C(=O)N[C@@H](CC(=O)O)C(=O)N[C@@H](CCC(=O)O)C(=O)N[C@@H](CCCNC(=N)N)C(=O)N[C@@H](C)C(=O)N[C@@H](C)C(=O)N[C@@H](CCC(N)=O)C(=O)N[C@@H](CC(=O)O)C(=O)N[C@@H](Cc1ccccc1)C(=O)N[C@H](C(=O)N[C@@H](CCC(N)=O)C(=O)N[C@@H](Cc1c[nH]c2ccccc12)C(=O)N[C@@H](CC(C)C)C(=O)N[C@@H](CC(C)C)C(=O)N[C@@H](CC(=O)O)C(=O)NCC(=O)N[C@@H](CCCNC(=N)N)C(=O)NCC(N)=O)C(C)C)C(=O)O [compound 29]
EC50 (glucagon receptor; EC50 (nM) at Glucagon Receptor, Table 4, Example 9, composite of multiple different activity assays): 0.007 nM | EC50 (GLP-1 receptor; EC50 (nM) at GLP-1 Receptor, Table 4, Example 9, composite of multiple different activity assays): 0.003 nM
